Assay [1] deals with Staphylococcus aureus (ATCC33591). Nature of the assay: Time kill experiment. The conditions noted are these: at two and four times the MIC.
Assay [2] has as its system Staphylococcus aureus. Kind of assay: Spheroplasting activities. The class given is cell-based. The conditions noted are these: Luria broth with 0.3M sucrose, 90 minutes, phase contrast microscope. The protocol: Aliquots (100 μl) of an exponential phase culture(A600,0.05) grown in Luria broth supplemented with 0.3M concentration of sucrose were dispensed into test tubes containing different concentration of Compound 1 and 1 μl/ml ampicillin as positive control. The tubes were then incubated at 30° C. with shaking at 140 rpm. After 90 minutes, the cells were examined by phase contrast microscope for any morphological changes or for the presence of spheroplast. To confirm the osmotic fragility of the spheroplast the lytic effect of 2-3 μl of water added under the cover slip was tested.

Turning to `CN[C@H](CC(C)C)C(=O)N[C@H]1C(=O)N[C@@H](CC(N)=O)C(=O)N[C@H]2C(=O)N[C@H]3C(=O)N[C@H](C(=O)N[C@H](C(=O)O)c4cc(O)cc(O)c4-c4cc3ccc4O)[C@H](O)c3ccc(c(Cl)c3)Oc3cc2cc(c3O[C@@H]2O[C@H](CO)[C@@H](O)[C@H](O)[C@H]2O[C@H]2C[C@](C)(N)[C@H](O)[C@H](C)O2)Oc2ccc(cc2Cl)[C@H]1O` [vancomycin, reference compound], the “course of viable bacterial cell count” value in assay [1] is on record as “decreased gradually”. Turning to `CC1(C)S[C@@H]2[C@H](NC(=O)[C@H](N)c3ccccc3)C(=O)N2[C@H]1C(=O)O` [ampicillin, reference compound], the “formation of osmotically fragile spheroplasts” value in assay [2] was “observed”. Moreover, in assay [1], the “course of viable bacterial cell count” value is “decreased gradually”.
